Source: patent publication US5300279A, “Organic amine phosphonic acid complexes for the treatment of calcific tumors” (The Dow Chemical Company, priority 1990, dated 1994)

Tests used:
[1] = localization of radioactivity (composition judged unacceptable); type: in vivo; conditions: Sm-153; species not stated
[2] = biolocalization of the radionuclide in rats (tissue distribution after tail vein injection); type: in vivo, male Sprague Dawley rats; conditions: for Bone/Blood / Bone/Muscle: ratio of percent dose per gram
Procedure: Studies to determine the qualitative biodistribution of the various radionuclides were conducted by injecting the compositions into rats and obtaining the gamma ray images of the entire animal at various times up to two hours after injection.
Laboratory rats were injected with the above complex (50-100 μl) via the tail vein. After 2 hours, the animals were sacrificed by cervical dislocation and organs and tissues removed. Samples were counted with a NaI counter to determine the biolocalization of the radionuclide.

tumor = conditions: female Irish Wolfhound, possible osteosarcoma; 0.97 mCi/kg
Procedure: An English Setter with a tumor in his pelvis was injected with approximately 19 mCi of a composition containing Sm-153-EDTMP. After 2 hours, the dog was imaged using a scintillation camera.
An Irish setter with undifferentiated sarcoma metastatic to bone was treated with 16 mCi (0.57 mCi/kg) of a composition containing Sm-153-EDTMP. […] After approximately 3 months, when signs of lameness began to reappear, the dog was given a second treatment of 15 mCi (0.49 mCi/kg), of a composition containing Sm-153-EDTMP.
A female Irish Wolfhound with a possible osteosarcoma on the left distal radius was injected with a composition containing ^166 Ho-EDTMP (0.97 mCi/kg).

[3] = Sm-153, rats, 2 hours, average of 5 rats
[4] = Yb-175, rats, two hour, average of 5 rats
[5] = Lu-177 (Ex. 14, 15; 5 rats) or Ho-166 (Ex. 16; 3 rats), two hour
[6] = Gd-159, two hour, average of five rats
[7] = Ho-166, Table X, time not stated, average of 3 rats
[8] = Ho-166, two hours, comparative, average of 2 rats (MDP, HEDP, PYP), 1 rat (IDP, HDP)
[9] = Sm-153, two hours, comparative, average of 5 rats (MDP, HEDP), 3 rats (PYP, IDP)

O=P(O)(O)CN(CCO)CP(=O)(O)O.[153Sm+3]
localization of radioactivity in the liver [1]: a significant portion of the radioactivity localized in the liver

O=P(O)(O)CN(CCN(CP(=O)(O)O)CP(=O)(O)O)CCN(CP(=O)(O)O)CP(=O)(O)O.[153Sm+3] [Example 4]
% Dose in Blood [2, 3]: 0.16 % Dose
% Dose in Liver [2, 3]: 0.27 % Dose
% Dose in Skeleton [2, 3]: 30 % Dose
% Dose in Urine [2, 3]: 74 % Dose
Bone/Blood [2, 3]: 224
Bone/Muscle [2, 3]: 220

O=P(O)(O)CN(CCO)CCN(CP(=O)(O)O)CP(=O)(O)O.[153Sm+3] [Example 6]
% Dose in Blood [2, 3]: 0.035 % Dose
% Dose in Liver [2, 3]: 0.45 % Dose
% Dose in Skeleton [2, 3]: 57 % Dose
% Dose in Urine [2, 3]: 50 % Dose
Bone/Blood [2, 3]: 1300
Bone/Muscle [2, 3]: 1300

O=P(O)(O)CN(CCN(CCN(CP(=O)(O)O)CP(=O)(O)O)CCN(CP(=O)(O)O)CP(=O)(O)O)CP(=O)(O)O.[153Sm+3] [Example 8]
% Dose in Blood [2, 3]: 0.25 % Dose
% Dose in Liver [2, 3]: 0.18 % Dose
% Dose in Skeleton [2, 3]: 28 % Dose
% Dose in Urine [2, 3]: 65 % Dose
Bone/Blood [2, 3]: 80
Bone/Muscle [2, 3]: 410

O=P(O)(O)CN(CCN(CP(=O)(O)O)CP(=O)(O)O)CP(=O)(O)O.[175Yb+3] [Example 9]
% Dose in Blood [2, 4]: 0.074 % Dose
% Dose in Liver [2, 4]: 0.138 % Dose
% Dose in Skeleton [2, 4]: 50 % Dose
Bone/Blood [2, 4]: 562
Bone/Muscle [2, 4]: 619

O=P(O)(O)CN(CCN(CP(=O)(O)O)CP(=O)(O)O)CCN(CP(=O)(O)O)CP(=O)(O)O.[175Yb+3] [Example 10]
% Dose in Blood [2, 4]: 0.116 % Dose
% Dose in Liver [2, 4]: 0.112 % Dose
% Dose in Skeleton [2, 4]: 25 % Dose
Bone/Blood [2, 4]: 179
Bone/Muscle [2, 4]: 366

O=P(O)(O)CN(CCO)CCN(CP(=O)(O)O)CP(=O)(O)O.[175Yb+3] [Example 11]
% Dose in Blood [2, 4]: 0.231 % Dose
% Dose in Liver [2, 4]: 0.214 % Dose
% Dose in Skeleton [2, 4]: 56 % Dose
Bone/Blood [2, 4]: 190
Bone/Muscle [2, 4]: 572

O=P(O)(O)CN(CP(=O)(O)O)CP(=O)(O)O.[175Yb+3] [Example 13]
% Dose in Blood [2, 4]: 0.204 % Dose
% Dose in Liver [2, 4]: 0.236 % Dose
% Dose in Skeleton [2, 4]: 63 % Dose
Bone/Blood [2, 4]: 256
Bone/Muscle [2, 4]: 876

O=P(O)(O)CN(CCN(CP(=O)(O)O)CP(=O)(O)O)CP(=O)(O)O.[177Lu+3] [Example 14]
% Dose in Blood [2, 5]: 0.10 % Dose
% Dose in Kidneys [2, 5]: 0.28 % Dose
% Dose in Liver [2, 5]: 0.48 % Dose
% Dose in Muscle [2, 5]: 0.44 % Dose
% Dose in Skeleton [2, 5]: 51 % Dose
Bone/Blood [2, 5]: 500
Bone/Muscle [2, 5]: 1380

O=P(O)(O)CN(CCO)CCN(CP(=O)(O)O)CP(=O)(O)O.[177Lu+3] [Example 15]
% Dose in Blood [2, 5]: 0.17 % Dose
% Dose in Kidneys [2, 5]: 0.30 % Dose
% Dose in Liver [2, 5]: 1.9 % Dose
% Dose in Muscle [2, 5]: 0.56 % Dose
% Dose in Skeleton [2, 5]: 58 % Dose
Bone/Blood [2, 5]: 370
Bone/Muscle [2, 5]: 570

O=P(O)(O)CN(CCN(CP(=O)(O)O)CP(=O)(O)O)CP(=O)(O)O.[166Ho+3] [Example 16]
% Dose in Blood [2, 5]: 0.03 % Dose
% Dose in Kidneys [2, 5]: 0.26 % Dose
% Dose in Liver [2, 5]: 0.05 % Dose
% Dose in Muscle [2, 5]: 0.10 % Dose
% Dose in Skeleton [2, 5]: 48 % Dose
Bone/Blood [2, 5]: 1114
Bone/Muscle [2, 5]: 2292
additional survival (tumor): 9 months
survival compared with usual expected life (tumor): greater than the usual expected life of a dog with osteosarcoma

O=P(O)(O)CN(CCN(CP(=O)(O)O)CP(=O)(O)O)CP(=O)(O)O.[159Gd+3] [Example 19]
% Dose in Blood [2, 6]: 0.15 % Dose
% Dose in Kidneys [2, 6]: 0.33 % Dose
% Dose in Liver [2, 6]: 0.25 % Dose
% Dose in Muscle [2, 6]: 0.56 % Dose
% Dose in Skeleton [2, 6]: 57 % Dose
Bone/Blood [2, 6]: 305
Bone/Muscle [2, 6]: 577

O=P(O)(O)CN(CCO)CCN(CP(=O)(O)O)CP(=O)(O)O.[159Gd+3] [Example 20]
% Dose in Blood [2, 6]: 0.14 % Dose
% Dose in Kidneys [2, 6]: 0.58 % Dose
% Dose in Liver [2, 6]: 0.57 % Dose
% Dose in Muscle [2, 6]: 0.76 % Dose
% Dose in Skeleton [2, 6]: 60 % Dose
Bone/Blood [2, 6]: 335
Bone/Muscle [2, 6]: 548

CN(CCN(CP(=O)(O)O)CP(=O)(O)O)CP(=O)(O)O.[166Ho+3] [Example 29]
% Dose in Blood [2, 7]: 0.12 % Dose
% Dose in Kidney [2, 7]: 0.30 % Dose
% Dose in Liver [2, 7]: 0.14 % Dose
% Dose in Muscle [2, 7]: 0.34 % Dose
% Dose in Skeleton [2, 7]: 68 % Dose
% Dose in Spleen [2, 7]: 0.01 % Dose
Bone/Blood [2, 7]: 470
Bone/Muscle [2, 7]: 1133

CC(C)N(CCN(CP(=O)(O)O)CP(=O)(O)O)CP(=O)(O)O.[166Ho+3] [Example 31]
% Dose in Blood [2, 7]: 0.22 % Dose
% Dose in Kidney [2, 7]: 0.44 % Dose
% Dose in Liver [2, 7]: 0.28 % Dose
% Dose in Muscle [2, 7]: 0.68 % Dose
% Dose in Skeleton [2, 7]: 65 % Dose
% Dose in Spleen [2, 7]: 0.01 % Dose
Bone/Blood [2, 7]: 245
Bone/Muscle [2, 7]: 520

O=P(O)(O)CN(CCN(CP(=O)(O)O)CP(=O)(O)O)Cc1ccccc1.[166Ho+3] [Example 33]
% Dose in Blood [2, 7]: 0.09 % Dose
% Dose in Kidney [2, 7]: 0.34 % Dose
% Dose in Liver [2, 7]: 0.13 % Dose
% Dose in Muscle [2, 7]: 0.31 % Dose
% Dose in Skeleton [2, 7]: 65 % Dose
% Dose in Spleen [2, 7]: 0.01 % Dose
Bone/Blood [2, 7]: 542
Bone/Muscle [2, 7]: 1093

O=P(O)(O)C(O)P(=O)(O)O.[166Ho+3] [H0-166 HDP, reference compound]
% Dose In Blood [2, 8]: 0.04 % Dose
% Dose In Bone [2, 8]: 0.2 % Dose
% Dose In Liver [2, 8]: 2 % Dose
Bone/Blood ([2]; Ho-166, two hours, comparative): 4
Bone/Muscle ([2]; Ho-166, two hours, comparative): 4

CC(O)(P(=O)(O)O)P(=O)(O)O.[166Ho+3] [Ho-166 HEDP, reference compound]
% Dose In Blood [2, 8]: 10.1 % Dose
% Dose In Bone [2, 8]: 25 % Dose
% Dose In Liver [2, 8]: 1.8 % Dose
Bone/Blood ([2]; Ho-166, two hours, comparative): 2
Bone/Muscle ([2]; Ho-166, two hours, comparative): 17

O=P(O)(O)NP(=O)(O)O.[166Ho+3] [Ho-166 IDP, reference compound]
% Dose In Blood [2, 8]: 0.28 % Dose
% Dose In Bone [2, 8]: 2 % Dose
% Dose In Liver [2, 8]: 65 % Dose
Bone/Blood ([2]; Ho-166, two hours, comparative): 6
Bone/Muscle ([2]; Ho-166, two hours, comparative): 17

O=P(O)(O)CP(=O)(O)O.[166Ho+3] [Ho-166 MDP, reference compound]
% Dose In Blood [2, 8]: 1.5 % Dose
% Dose In Bone [2, 8]: 1 % Dose
% Dose In Liver [2, 8]: 64 % Dose
Bone/Blood ([2]; Ho-166, two hours, comparative): 0.5
Bone/Muscle ([2]; Ho-166, two hours, comparative): 6

O=P(O)(O)OP(=O)(O)O.[166Ho+3] [Ho-166 PYP, reference compound]
% Dose In Blood [2, 8]: 0.63 % Dose
% Dose In Bone [2, 8]: 3 % Dose
% Dose In Liver [2, 8]: 67 % Dose
Bone/Blood ([2]; Ho-166, two hours, comparative): 4
Bone/Muscle ([2]; Ho-166, two hours, comparative): 13

CC(O)(P(=O)(O)O)P(=O)(O)O.[153Sm+3] [Sm-153 HEDP, reference compound]
% Dose In Blood [2, 9]: 13 % Dose
% Dose In Bone [2, 9]: 21 % Dose
% Dose In Liver [2, 9]: 3.5 % Dose
Bone/Blood ([2]; Sm-153, two hours, comparative): 1
Bone/Muscle ([2]; Sm-153, two hours, comparative): 11

O=P(O)(O)NP(=O)(O)O.[153Sm+3] [Sm-153 IDP, reference compound]
% Dose In Blood [2, 9]: 0.04 % Dose
% Dose In Bone [2, 9]: 0.6 % Dose
% Dose In Liver [2, 9]: 36 % Dose
Bone/Blood ([2]; Sm-153, two hours, comparative): 11
Bone/Muscle ([2]; Sm-153, two hours, comparative): 8

O=P(O)(O)CP(=O)(O)O.[153Sm+3] [Sm-153 MDP, reference compound]
% Dose In Blood [2, 9]: 0.23 % Dose
% Dose In Bone [2, 9]: 2 % Dose
% Dose In Liver [2, 9]: 85 % Dose
Bone/Blood ([2]; Sm-153, two hours, comparative): 9
Bone/Muscle ([2]; Sm-153, two hours, comparative): 7

O=P(O)(O)OP(=O)(O)O.[153Sm+3] [Sm-153 PYP, reference compound]
% Dose In Blood [2, 9]: 0.23 % Dose
% Dose In Bone [2, 9]: 2 % Dose
% Dose In Liver [2, 9]: 73 % Dose
Bone/Blood ([2]; Sm-153, two hours, comparative): 7
Bone/Muscle ([2]; Sm-153, two hours, comparative): 15
